Data from ChEMBL document CHEMBL1201862, “PubChem BioAssay data set” (2004).
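Method: 48-hour compound exposure of cells in 96-well plates, five concentrations, linear interpolation of endpoints. GI50 is the concentration that inhibits growth by half.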 Activity calls are given as the source filed them. No stated cut-off is given here; in the data, active = GI50 up to about 1.1 µM and inactive = higher.

Tests used:
Experiment in all cases: NCI-60 cell line screen, 48 h
SR = system: SR
SW-620 = system: SW-620
SF-539 = system: SF-539
SF-295 = system: SF-295
MOLT-4 = system: MOLT-4
SN12C = system: SN12C
UO-31 = system: UO-31
SK-MEL-28 = system: SK-MEL-28
SK-MEL-2 = system: SK-MEL-2
TK-10 = system: TK-10
OVCAR-3 = system: OVCAR-3
K562 = system: K562
Malme-3M = system: Malme-3M
COLO 205 = system: COLO 205
786-0 = system: 786-0
U-251 = system: U-251
MDA-MB-435 = system: MDA-MB-435
MCF7 = system: MCF7
PC-3 = system: PC-3
Hs-578T = system: Hs-578T

Compound	GI50 (SR)	GI50 (SW-620)	GI50 (SF-539)	GI50 (SF-295)	GI50 (MOLT-4)	GI50 (SN12C)	GI50 (UO-31)	GI50 (SK-MEL-28)	GI50 (SK-MEL-2)	GI50 (TK-10)	GI50 (OVCAR-3)	GI50 (K562)	GI50 (Malme-3M)	GI50 (COLO 205)	GI50 (786-0)	GI50 (U-251)	GI50 (MDA-MB-435)	GI50 (MCF7)	GI50 (PC-3)	GI50 (Hs-578T)
Oc1ccc(I)c2cccnc12	3.35 µM (inactive)	4.43 µM (inactive)	12.5 µM (inactive)	3.48 µM (inactive)	2.96 µM (inactive)	13.4 µM (inactive)	6.98 µM (inactive)	40.1 µM (inactive)	11.9 µM (inactive)	37.2 µM (inactive)	4.82 µM (inactive)	2.93 µM (inactive)	7.55 µM (inactive)	27.2 µM (inactive)	4.88 µM (inactive)	6.78 µM (inactive)				
O=C1N[C@H]2c3c(Cl)sc(Cl)c3/C(=N/O)[C@H]2O1	> 100 µM (inactive)	> 100 µM (inactive)	88.1 µM (inactive)		> 100 µM (inactive)	> 100 µM (inactive)	> 100 µM (inactive)	> 100 µM (inactive)	> 100 µM (inactive)	> 100 µM (inactive)	> 100 µM (inactive)	75.3 µM (inactive)	> 100 µM (inactive)	> 100 µM (inactive)	> 100 µM (inactive)	> 100 µM (inactive)	> 100 µM (inactive)	> 100 µM (inactive)	> 100 µM (inactive)	
Cc1c2ccccc2c(C)c2c3c(ccc12)C(=O)C=CC3=O	8.36 µM (inactive)	21.6 µM (inactive)	35.6 µM (inactive)	24.7 µM (inactive)	2.26 µM (inactive)	27.8 µM (inactive)	18.2 µM (inactive)	30.7 µM (inactive)	45.7 µM (inactive)	19.2 µM (inactive)	17.8 µM (inactive)	11.3 µM (inactive)	29 µM (inactive)	15.7 µM (inactive)	25.7 µM (inactive)	52.1 µM (inactive)				
COc1cc(OC)c(OC)cc1/C=C/c1cc[n+](C)c2ccccc12	17.8 µM (inactive)	36.2 µM (inactive)		15.3 µM (inactive)	21.2 µM (inactive)		> 100 µM (inactive)	> 100 µM (inactive)		> 100 µM (inactive)		3.07 µM (inactive)	> 100 µM (inactive)	5.96 µM (inactive)	25.2 µM (inactive)	5.02 µM (inactive)		49.2 µM (inactive)	20.7 µM (inactive)	
O=c1c2ccccc2n2n1CC(O)C2 (configuration not stated)	> 100 µM (inactive)	> 100 µM (inactive)	> 100 µM (inactive)	> 100 µM (inactive)	> 100 µM (inactive)	> 100 µM (inactive)	> 100 µM (inactive)	> 100 µM (inactive)	> 100 µM (inactive)	> 100 µM (inactive)	> 100 µM (inactive)	> 100 µM (inactive)	4.56 µM (inactive)	> 100 µM (inactive)	> 100 µM (inactive)	> 100 µM (inactive)				
COc1ccc(C#CCC(OC2OC(CO)C(O)C(O)C2O)C(O)c2ccc(OC)c(OC)c2)cc1OC (configuration not stated)	> 100 µM (inactive)	> 100 µM (inactive)	> 100 µM (inactive)	> 100 µM (inactive)	> 100 µM (inactive)	> 100 µM (inactive)	> 100 µM (inactive)	> 100 µM (inactive)	> 100 µM (inactive)		> 100 µM (inactive)	57.4 µM (inactive)	> 100 µM (inactive)	> 100 µM (inactive)	> 100 µM (inactive)	> 100 µM (inactive)				
COc1cc2c(c(OC)c1OC)-c1ccc(SC)c(=O)cc1C(CC(=O)Oc1cccc([N+](=O)[O-])c1)C2 (configuration not stated)	0.459 µM (active)	0.4 µM (active)	0.263 µM (active)	0.342 µM (active)	1.15 µM (inactive)	1.11 µM (active)	2.76 µM (inactive)	0.546 µM (active)	0.713 µM (active)	> 90.8 µM (inactive)	0.276 µM (active)	0.344 µM (active)	0.36 µM (active)	0.489 µM (active)	0.473 µM (active)	0.794 µM (active)				
O=S(=O)(c1ccccc1)n1c2ccc(Br)cc2c2nc3ccccc3nc21	> 100 µM (inactive)	> 100 µM (inactive)		> 100 µM (inactive)	> 100 µM (inactive)	> 100 µM (inactive)	> 100 µM (inactive)	> 100 µM (inactive)	> 100 µM (inactive)	> 100 µM (inactive)	> 100 µM (inactive)	> 100 µM (inactive)	> 100 µM (inactive)	> 100 µM (inactive)	> 100 µM (inactive)	> 100 µM (inactive)	> 100 µM (inactive)		> 100 µM (inactive)	> 100 µM (inactive)
Cc1cc(N(CCC#N)CCC#N)ccc1/C=C1N=C(/C=C\c2ccccc2)N(c2ccc(C(=O)O)cc2)C\1=O	> 100 µM (inactive)	> 100 µM (inactive)	> 100 µM (inactive)	> 100 µM (inactive)	> 100 µM (inactive)	> 100 µM (inactive)	> 100 µM (inactive)	> 100 µM (inactive)	> 100 µM (inactive)	> 100 µM (inactive)	> 100 µM (inactive)	> 100 µM (inactive)	> 100 µM (inactive)	> 100 µM (inactive)	> 100 µM (inactive)	> 100 µM (inactive)				
CN(CCN(C)C(=S)NN)C(=S)NN	> 100 µM (inactive)	> 100 µM (inactive)		> 100 µM (inactive)	> 100 µM (inactive)	> 100 µM (inactive)	> 100 µM (inactive)	> 100 µM (inactive)	> 100 µM (inactive)		> 100 µM (inactive)		> 100 µM (inactive)	> 100 µM (inactive)	> 100 µM (inactive)	> 100 µM (inactive)	> 100 µM (inactive)		> 100 µM (inactive)	> 100 µM (inactive)
N#CC1=C(N2CCCC2)NC(=O)CC1=O	> 100 µM (inactive)	> 100 µM (inactive)	> 100 µM (inactive)	> 100 µM (inactive)	> 100 µM (inactive)	> 100 µM (inactive)	> 100 µM (inactive)	> 100 µM (inactive)	> 100 µM (inactive)	> 100 µM (inactive)	> 100 µM (inactive)	> 100 µM (inactive)	> 100 µM (inactive)	> 100 µM (inactive)	> 100 µM (inactive)	> 100 µM (inactive)	> 100 µM (inactive)		> 100 µM (inactive)	> 100 µM (inactive)
O=S(=O)(O)c1ccc2c(/N=N/c3ccccc3Cl)c(O)ccc2c1	> 100 µM (inactive)	> 100 µM (inactive)		> 100 µM (inactive)	> 100 µM (inactive)	> 100 µM (inactive)	> 100 µM (inactive)	> 100 µM (inactive)	> 100 µM (inactive)	> 100 µM (inactive)	> 100 µM (inactive)	> 100 µM (inactive)	> 100 µM (inactive)	> 100 µM (inactive)	> 100 µM (inactive)	> 100 µM (inactive)	> 100 µM (inactive)		> 100 µM (inactive)	> 100 µM (inactive)
C=C1CC2CC[C@@]34C[C@H]5O[C@@H]6C(O[C@H]7CC[C@H](CC(=O)OC8[C@H](C)C9OC%10C[C@]%11(C[C@@H]%12O[C@]%13(C[C@H](C)[C@@H]%14O[C@H]([C@H](O)C[C@H](O)CO)C[C@@H]%14O%13)C[C@H](C)[C@@H]%12O%11)OC%10CC9O[C@H]8C[C@H]8O[C@H](CC[C@@H]1O2)C[C@@H](C)C8=C)O[C@H]7[C@@H]6O3)[C@@H]5O4 (some centres not stated)	0.000498 µM (active)	0.000482 µM (active)	0.000676 µM (active)	0.00046 µM (active)	0.000752 µM (active)	0.00405 µM (active)	0.00539 µM (active)	0.00219 µM (active)	0.00149 µM (active)	0.00681 µM (active)	0.000303 µM (active)	0.000484 µM (active)	0.00131 µM (active)	0.000492 µM (active)	0.00246 µM (active)	0.000899 µM (active)	0.0001 µM (active)	0.000255 µM (active)	0.000106 µM (active)	
[C-]#[N+]C(C)(C)C[C@H]1CC(C)C2CCC(C)C3([N+]#[C-])CCC(=C)C1[C@H]23 (some centres not stated)	0.418 µM (active)	5.08 µM (inactive)	3.37 µM (inactive)	0.887 µM (active)	0.316 µM (active)	0.195 µM (active)	0.251 µM (active)	11.3 µM (inactive)	0.753 µM (active)	5.62 µM (inactive)	2.36 µM (inactive)	0.327 µM (active)	5.86 µM (inactive)	0.166 µM (active)	2.34 µM (inactive)	1.51 µM (inactive)				
CC(=O)Oc1c2oc3cc(O)c(O)cc3c2c(OC(C)=O)c2oc3cc(O)c(O)cc3c12 [POLYOZELLIN]	4.4 µM (inactive)	23.2 µM (inactive)	23 µM (inactive)	16.7 µM (inactive)	2.64 µM (inactive)	20.9 µM (inactive)	21 µM (inactive)	21.1 µM (inactive)	20.5 µM (inactive)	18.9 µM (inactive)	> 10 µM (inactive)	19.1 µM (inactive)	17.1 µM (inactive)	15.4 µM (inactive)	25.2 µM (inactive)	1.56 µM (inactive)	1.82 µM (inactive)		19.8 µM (inactive)	12.2 µM (inactive)
